24 compounds from PubChem BioAssay AID330 (DTP/NCI, 2004) can be followed below.

Values joined by “and” are separate entries in the source; they are usually repeats but may differ in a detail not shown here. Equal entries are not always repeated. Inconclusive results and toxic doses are left out.

The subject of the experiment is P388 leukemia ip, CD2F1 mice, survival T/C. Put plainly: NCI In Vivo Anticancer Drug Screen. Data for tumor model P388 Leukemia (intraperitoneal) in CD2F1 (CDF1) mice. The settings on record: endpoint: median survival time, higher = longer survival. Put shortly: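 Mice carrying the transplanted tumor received test compound or vehicle. Survival was recorded in each group, and the value is the treated-group measurement divided by that of the vehicle-treated control group.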

[1] abbreviates: dose: 60.0 mg/kg/injection, schedule: Q01DX005 (ip), vehicle: saline with Tween-80.
The mark [2] stands for this setting: dose: 120.0 mg/kg/injection, schedule: Q01DX005 (ip), vehicle: saline with Tween-80.
[3] abbreviates: dose: 240.0 mg/kg/injection, schedule: Q01DX005 (ip), vehicle: saline with Tween-80.
Setting [4] is: dose: 50.0 mg/kg/injection, schedule: Q01DX009 (ip), vehicle: saline with Tween-80.
[5] abbreviates: dose: 100.0 mg/kg/injection, schedule: Q01DX009 (ip), vehicle: saline with Tween-80.
Where [6] appears, read: dose: 200.0 mg/kg/injection, schedule: Q01DX009 (ip), vehicle: saline with Tween-80.
Setting [7] is: dose: 50.0 mg/kg/injection, schedule: Q01DX005 (ip), vehicle: saline with Tween-80.
Where [8] appears, read: dose: 100.0 mg/kg/injection, schedule: Q01DX005 (ip), vehicle: saline with Tween-80.
The mark [9] stands for this setting: dose: 200.0 mg/kg/injection, schedule: Q01DX005 (ip), vehicle: saline with Tween-80.
Setting [10] is: dose: 6.25 mg/kg/injection, schedule: Q01DX009 (ip), vehicle: saline with Tween-80.
Where [11] appears, read: dose: 100.0 mg/kg/injection, schedule: Q01DX009 (ip), vehicle: Klucel (hydroxypropylcellulose) (HPC).
The mark [12] stands for this setting: dose: 200.0 mg/kg/injection, schedule: Q01DX009 (ip), vehicle: Klucel (hydroxypropylcellulose) (HPC).
The mark [13] stands for this setting: dose: 60.0 mg/kg/injection, schedule: Q01DX005 (ip), vehicle: saline.
Setting [14] is: dose: 120.0 mg/kg/injection, schedule: Q01DX005 (ip), vehicle: saline.
[15] abbreviates: dose: 240.0 mg/kg/injection, schedule: Q01DX005 (ip), vehicle: saline.
[16] abbreviates: dose: 25.0 mg/kg/injection, schedule: Q01DX005 (ip), vehicle: saline with Tween-80.

For `CCOC(=O)C1=C(C(=O)c2ccc(C)cc2)C(c2ccc(Cl)cc2Cl)C(C(=O)c2ccc(C)cc2)=C(C(=O)OCC)N1`, the T/C is, setting by setting: under setting [1], 89 % of control; under setting [2], 98 % of control.

Regarding `CCOC(=O)c1ccc(NC(=O)OC2CCCC2)cc1`, the T/C was 92 % of control under setting [1], 90 % of control under setting [2] and 89 % of control under setting [3].

Regarding `CCN(C)C12CN3CN(CN(C3)C1)C2`, the T/C is 101 % of control (dose: 100.0 mg/kg/injection, schedule: Q01DX001 (ip), vehicle: saline); 110 % of control (dose: 200.0 mg/kg/injection, schedule: Q01DX001 (ip), vehicle: saline); 102 % of control (dose: 400.0 mg/kg/injection, schedule: Q01DX001 (ip), vehicle: saline).

Turning to `CC(C)(C)c1cc(-n2nc3ccccc3[n+]2[O-])c(O)c(C(C)(C)C)c1`, the T/C reads like this: under setting [1], 100 % of control; under setting [2], 94 % of control; under setting [3], 91 % of control.

For `CC1=Nc2ccc([N+](=O)[O-])cc2N=C(C)C1`, the T/C is, setting by setting: under setting [4], 101 % of control; under setting [5], 98 % of control; (dose: 100.0 mg/kg/injection, schedule: Q04DX002 (ip), vehicle: saline) 101 % of control; under setting [6], 90 % of control; (dose: 200.0 mg/kg/injection, schedule: Q04DX002 (ip), vehicle: saline) 101 % of control; (dose: 400.0 mg/kg/injection, schedule: Q04DX002 (ip), vehicle: saline) 105 % of control.

For the compound `Cc1cn(C2CC(O)C(CI)O2)c(=O)[nH]c1=O` (centres undefined), the T/C by setting is: under setting [7], 98 % of control; under setting [8], 104 % of control; under setting [9], 98 % of control.

Turning to `Cc1ccc2c3c(c(=O)oc2c1)[C@H](C)C[C@@](C)(CO)O3`, the T/C is, setting by setting: under setting [1], 113 % of control; under setting [2], 107 % of control; under setting [3], 100 % of control.

`BrCCN(CCBr)c1ccc2c3c(cccc13)-c1ccccc1-2`: the T/C (dose: 4.0 mg/kg/injection, schedule: Q01DX009 (ip), vehicle: saline with Tween-80) was 160 % of control and 163 % of control; the T/C (dose: 6.0 mg/kg/injection, schedule: Q01DX009 (ip), vehicle: saline with Tween-80) is 178 % of control; the T/C under setting [10] was 154 % of control; the T/C (dose: 9.0 mg/kg/injection, schedule: Q01DX009 (ip), vehicle: saline with Tween-80) is 117 % of control; the T/C (dose: 100.0 mg/kg/injection, schedule: Q04DX003 (ip), vehicle: saline with Tween-80) was 104 % of control; the T/C (dose: 200.0 mg/kg/injection, schedule: Q04DX003 (ip), vehicle: saline with Tween-80) was 104 % of control.

As for `O=C1CN(CCN2CCCCC2)CC(=O)N2CCCCN12`, the T/C is 102 % of control under setting [7] and 107 % of control under setting [8].

For `O=S(=O)(OC(F)(F)F)C(F)(F)F`, the T/C is 97 % of control (dose: 24.5 mg/kg/injection, schedule: Q01DX001 (ip), vehicle: Klucel (hydroxypropylcellulose) (HPC)); 94 % of control (dose: 49.0 mg/kg/injection, schedule: Q01DX001 (ip), vehicle: Klucel (hydroxypropylcellulose) (HPC)); 94 % of control (dose: 98.0 mg/kg/injection, schedule: Q01DX001 (ip), vehicle: Klucel (hydroxypropylcellulose) (HPC)).

Consider `Cn1c(Cl)c(/C=C(/NC(=O)c2ccccc2)C(=O)O)c2ccccc21`, for which the T/C by setting is: (dose: 100.0 mg/kg/injection, schedule: Q01DX001 (ip), vehicle: Klucel (hydroxypropylcellulose) (HPC)) 102 % of control; (dose: 200.0 mg/kg/injection, schedule: Q01DX001 (ip), vehicle: Klucel (hydroxypropylcellulose) (HPC)) 93 % of control; (dose: 400.0 mg/kg/injection, schedule: Q01DX001 (ip), vehicle: Klucel (hydroxypropylcellulose) (HPC)) 93 % of control.

As for `CCOC(=O)c1nc(C)[nH]c1C`, the T/C (dose: 50.0 mg/kg/injection, schedule: Q01DX009 (ip), vehicle: Klucel (hydroxypropylcellulose) (HPC)) was 100 % of control; the T/C under setting [11] was 95 % of control; the T/C under setting [12] is 100 % of control.

Turning to `CCCCCCC(=O)/C=C/c1cccc(OCc2ccc(Cl)c(Cl)c2)c1`, the T/C is 115 % of control under setting [4], 90 % of control under setting [5] and 97 % of control under setting [6].

Consider `CCOC(=O)C1=C(C)NC(=O)NC1c1coc2cc(C)cc(C)c2c1=O` (centres undefined), for which the T/C reads like this: (dose: 12.5 mg/kg/injection, schedule: Q01DX005 (ip), vehicle: Klucel (hydroxypropylcellulose) (HPC)) 86 % of control; (dose: 25.0 mg/kg/injection, schedule: Q01DX005 (ip), vehicle: Klucel (hydroxypropylcellulose) (HPC)) 91 % of control; (dose: 50.0 mg/kg/injection, schedule: Q01DX005 (ip), vehicle: Klucel (hydroxypropylcellulose) (HPC)) 98 % of control and 96 % of control.

For the compound `COc1ccc(/C=N/N2CN(C(C)C(=O)O)P(Nc3ncccn3)N=C2N)cc1OC` (centres undefined), the T/C was 104 % of control under setting [13], 103 % of control under setting [14] and 108 % of control under setting [15].

For the compound `CCCCCCC(=O)/C=C/c1cc(Cl)cc(Cl)c1OCOC`, the T/C by setting is: under setting [11], 116 % of control; under setting [12], 100 % of control.

As for `CCCCOP(=O)(O)OCCCC.[U]`, the T/C under setting [10] is 97 % of control.

Consider `CC1CCCN(CC(O)CN2C[C@@H](C)N(CC(O)CN3CCCC(C)C3)[C@H](C)C2)C1` (some centres undefined), for which the T/C (dose: 12.5 mg/kg/injection, schedule: Q01DX005 (ip), vehicle: saline with Tween-80) is 100 % of control; the T/C under setting [16] is 100 % of control; the T/C under setting [7] was 100 % of control and 112 % of control.

Turning to `O=[N+]([O-])c1ccc(Sc2c3ccccc3nc3ccccc23)cn1`, the T/C under setting [16] is 104 % of control, the T/C under setting [7] was 109 % of control, the T/C under setting [8] is 104 % of control and the T/C under setting [9] was 101 % of control.

In the case of `CC(=O)OC1CC2CCC1(CC(=O)c1ccccc1)C2(C)C` (centres undefined), the T/C under setting [4] is 96 % of control, the T/C under setting [5] was 92 % of control and the T/C under setting [6] was 100 % of control.

As to `O=[N+]([O-])c1ccc(N=Nc2ccc(N(CCO)CCO)cc2)cc1`, the T/C was 95 % of control (dose: 60.0 mg/kg/injection, schedule: Q01DX005 (ip), vehicle: suspension in saline); 97 % of control (dose: 120.0 mg/kg/injection, schedule: Q01DX005 (ip), vehicle: suspension in saline); 98 % of control (dose: 240.0 mg/kg/injection, schedule: Q01DX005 (ip), vehicle: suspension in saline).

In the case of `CCOC(=O)C1=C(C(C)=O)C(c2ccccc2[N+](=O)[O-])C(C(C)=O)=C(C(=O)OCC)N1`, the T/C under setting [13] was 104 % of control, the T/C under setting [14] was 105 % of control and the T/C under setting [15] is 96 % of control.

With `COc1ccccc1/C=N/NC(=O)Cc1ccccc1`, the T/C under setting [4] is 101 % of control, the T/C under setting [5] was 91 % of control and the T/C under setting [6] is 93 % of control.

Consider `CCCCCC(=O)C(C)(c1nc2n(c1O)/C(=N/C(=O)Nc1ccc(Cl)cc1)N=N2)c1nc2n(c1O)/C(=N/C(=O)Nc1ccc(Cl)cc1)N=N2`, for which the T/C is 89 % of control under setting [1], 88 % of control under setting [2] and 86 % of control under setting [3].
